Measured values from patent US20260125346A1, “Isoquinolinone Derivatives and 4H-Quinolizinone Derivatives and Pharmaceutical Compositions Thereof for the Treatment of Disease” (BeOne Medicines I GmbH, priority 2023, published 2026).

Columns and labels:
[1] = system: PI3Kα H1047R mutated cell line T-47D cells; test: Cell Proliferation Assay (CellTiter-Glo), T-47D; format: cell-based; details: for IC50: Homo sapiens, T47D, 72 h, T-47D, 3 days treatment; for Selectivity: SK-BR-3/T-47D (cell proliferation): cell proliferation IC50 ratio
How it was run: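 T-47D cells seeded overnight at 3×10^3/well, then exposed 3 days to 9-point 1:3 dilutions, final […] to 1 nM in 0.1% DMSO. CellTiter-Glo luminescence; relative IC50 from percent inhibition versus medium-only and 0.1% DMSO controls, 4-parameter logistic fit.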

[2] = target: PI3Kα (p110[H1047R]/p85) kinase (Homo sapiens, UniProt P42336, H1047R); test: PI3Kα (p110[H1047R]/p85) kinase ADP-Glo Assay; format: biochemical; details: 25 uM ATP; for selectivity: WT/H1047R: ADP-Glo Assay IC50 ratio
How it was run: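 ADP-Glo luminescence tracked ADP formed by the mutant p110α(H1047R)/p85 complex during a 120 min room-temperature reaction with 25 µM ATP and 5.35 µg/ml PI(4,5)P2:PS lipid substrate, started after 30 min enzyme–compound–substrate pre-incubation (compound […], 50 mM HEPES pH 7.5). IC50 via four-parameter logistic equation.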

PI3Kα (p110[H1047R]/p85) kinase, sequence (P42336 whole entry H1047R): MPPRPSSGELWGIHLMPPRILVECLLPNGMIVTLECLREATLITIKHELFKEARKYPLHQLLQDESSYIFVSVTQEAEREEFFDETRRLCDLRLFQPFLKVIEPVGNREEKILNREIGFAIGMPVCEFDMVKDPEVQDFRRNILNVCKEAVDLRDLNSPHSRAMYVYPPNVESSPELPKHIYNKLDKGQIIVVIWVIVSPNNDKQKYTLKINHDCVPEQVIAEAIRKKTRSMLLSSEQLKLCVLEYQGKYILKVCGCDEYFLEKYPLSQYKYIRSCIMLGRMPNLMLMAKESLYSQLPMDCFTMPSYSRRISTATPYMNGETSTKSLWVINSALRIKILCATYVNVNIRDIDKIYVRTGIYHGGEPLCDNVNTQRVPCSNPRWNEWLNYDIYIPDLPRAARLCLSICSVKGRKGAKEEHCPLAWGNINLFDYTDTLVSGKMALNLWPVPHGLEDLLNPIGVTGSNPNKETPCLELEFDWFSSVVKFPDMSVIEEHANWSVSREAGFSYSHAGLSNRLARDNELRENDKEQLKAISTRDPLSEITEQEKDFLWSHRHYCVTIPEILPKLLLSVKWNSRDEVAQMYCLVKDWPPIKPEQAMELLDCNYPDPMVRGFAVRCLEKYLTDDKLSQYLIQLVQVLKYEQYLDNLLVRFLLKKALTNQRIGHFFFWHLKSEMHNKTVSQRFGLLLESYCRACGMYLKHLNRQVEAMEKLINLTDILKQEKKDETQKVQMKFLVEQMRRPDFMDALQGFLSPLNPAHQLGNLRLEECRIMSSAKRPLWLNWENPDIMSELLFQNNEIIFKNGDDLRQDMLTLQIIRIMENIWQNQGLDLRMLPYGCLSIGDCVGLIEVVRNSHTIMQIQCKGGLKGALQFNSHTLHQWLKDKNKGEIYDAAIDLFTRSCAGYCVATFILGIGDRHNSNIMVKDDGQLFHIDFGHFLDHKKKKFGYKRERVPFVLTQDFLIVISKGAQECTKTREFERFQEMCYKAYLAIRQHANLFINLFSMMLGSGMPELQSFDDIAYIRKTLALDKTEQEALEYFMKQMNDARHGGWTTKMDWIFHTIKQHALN
PI3Kα (p110[H1047R]/p85) kinase, sequence (P27986 whole entry partner): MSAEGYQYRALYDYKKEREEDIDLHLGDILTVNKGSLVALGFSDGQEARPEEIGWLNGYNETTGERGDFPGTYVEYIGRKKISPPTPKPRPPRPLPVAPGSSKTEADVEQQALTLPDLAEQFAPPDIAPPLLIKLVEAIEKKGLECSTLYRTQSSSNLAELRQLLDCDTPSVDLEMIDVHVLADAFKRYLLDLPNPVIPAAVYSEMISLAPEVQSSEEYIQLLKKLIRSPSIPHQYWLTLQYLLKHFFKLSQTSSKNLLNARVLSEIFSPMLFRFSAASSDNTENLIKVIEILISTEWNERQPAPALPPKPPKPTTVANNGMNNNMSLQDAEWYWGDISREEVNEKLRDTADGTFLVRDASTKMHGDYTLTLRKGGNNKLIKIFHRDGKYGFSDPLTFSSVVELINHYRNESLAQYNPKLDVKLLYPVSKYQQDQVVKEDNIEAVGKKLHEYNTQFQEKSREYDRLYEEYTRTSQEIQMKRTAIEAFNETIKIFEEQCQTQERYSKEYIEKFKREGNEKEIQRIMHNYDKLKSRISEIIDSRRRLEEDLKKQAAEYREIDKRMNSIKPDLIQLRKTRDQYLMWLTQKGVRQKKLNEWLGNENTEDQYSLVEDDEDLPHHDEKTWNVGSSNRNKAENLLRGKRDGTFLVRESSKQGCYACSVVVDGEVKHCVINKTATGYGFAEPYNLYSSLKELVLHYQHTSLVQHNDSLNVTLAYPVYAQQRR

IC50 [1] [nM] | IC50 [2] [nM] | selectivity: WT/H1047R [2] | Structure (SMILES) | Selectivity: SK-BR-3/T-47D (cell proliferation) [1]
216 | 267 | 36.7 | Cc1cc(C(C)Nc2ccccc2C(=O)O)c2cc(-c3cncc(F)c3)n(C)c(=O)c2c1 (centres unmarked) [Example 38, 2-((1-(3-(5-fluoropyridin-3-yl)-2,7-dimethyl-1-oxo-1,2-dihydroisoquinolin-5-yl)ethyl)amino)benzoic acid] | >46
496 | 922 | 11.5 | Cc1cc(C(C)Nc2ccccc2C(=O)O)c2cc(-c3ccc4nn(C)cc4n3)n(C)c(=O)c2c1 (centres unmarked) [Example 39, 2-((1-(2,7-dimethyl-3-(2-methyl-2H-pyrazolo[4,3-b]pyridin-5-yl)-1-oxo-1,2-dihydroisoquinolin-5-yl)ethyl)amino)benzoic acid] | >20
52.7 | 55 | 93.1 | Cc1cc([C@@H](C)Nc2ccccc2C(=O)O)c2cc(-c3ccc(-c4cnn(C)c4)cc3)n(C)c(=O)c2c1 [Example 40, (R)-2-((1-(2,7-dimethyl-3-(4-(1-methyl-1H-pyrazol-4-yl)phenyl)-1-oxo-1,2-dihydroisoquinolin-5-yl)ethyl)amino)benzoic acid] | >190
620 | 235 | 10.1 | Cc1cc(C(C)Nc2ccccc2C(=O)O)c2cc(C#Cc3ccccc3)n(C)c(=O)c2c1 (centres unmarked) [Example 43, 2-((1-(2,7-dimethyl-1-oxo-3-(phenylethynyl)-1,2-dihydroisoquinolin-5-yl)ethyl)amino)benzoic acid] | >16
4770 | 795 | 2.3 | Cc1cc(C(C)Nc2ccccc2C(=O)O)c2cc(/C=C/c3ccccc3)n(C)c(=O)c2c1 (centres unmarked) [Example 44, (E)-2-((1-(2,7-dimethyl-1-oxo-3-styryl-1,2-dihydroisoquinolin-5-yl)ethyl)amino)benzoic acid] | >2.1
841 | 273 | 26.4 | Cc1cc(C(C)Nc2ccccc2C(=O)O)c2cc(C3=Cc4ccccc4CC3)n(C)c(=O)c2c1 (centres unmarked) [Example 45, 2-((1-(3-(3,4-dihydronaphthalen-2-yl)-2,7-dimethyl-1-oxo-1,2-dihydroisoquinolin-5-yl)ethyl)amino)benzoic acid] | >12
210 | 480 | 23.0 | Cc1cc(C(C)Nc2ccccc2C(=O)O)c2cc(C3=CCN(c4ccccc4)CC3)n(C)c(=O)c2c1 (centres unmarked) [Example 46, 2-((1-(2,7-dimethyl-1-oxo-3-(1-phenyl-1,2,3,6-tetrahydropyridin-4-yl)-1,2-dihydroisoquinolin-5-yl)ethyl)amino)benzoic acid] | >48
> 10000 | 525 | 27.3 | Cc1cc(C(C)Nc2cc3ccsc3cc2C(=O)O)c2cc(-c3ccccc3)n(C)c(=O)c2c1 (centres unmarked) [Example 47, 5-((1-(2,7-dimethyl-1-oxo-3-phenyl-1,2-dihydroisoquinolin-5-yl)ethyl)amino)benzo[b]thiophene-6-carboxylic acid] | 
> 10000 | 829 | 6.2 | Cc1cc(C(C)Nc2c(C(=O)O)sc3ccccc23)c2cc(-c3ccccc3)n(C)c(=O)c2c1 (centres unmarked) [Example 48, 3-((1-(2,7-dimethyl-1-oxo-3-phenyl-1,2-dihydroisoquinolin-5-yl)ethyl)amino)benzo[b]thiophene-2-carboxylic acid] | 
986 | 457 | 20.8 | Cc1cc(C(C)Nc2ccccc2C(=O)O)c2cc(-c3ccc(C(F)(F)F)cc3)n(C)c(=O)c2c1 (centres unmarked) [Example 49, 2-((1-(2,7-dimethyl-1-oxo-3-(4-(trifluoromethyl)phenyl)-1,2-dihydroisoquinolin-5-yl)ethyl)amino)benzoic acid] | >10
3230 | 376 | 27.6 | Cc1cc(C(C)Nc2ccccc2C(=O)O)c2cc(-c3cccc(C(F)(F)F)c3)n(C)c(=O)c2c1 (centres unmarked) [Example 50, 2-((1-(2,7-dimethyl-1-oxo-3-(3-(trifluoromethyl)phenyl)-1,2-dihydroisoquinolin-5-yl)ethyl)amino)benzoic acid] | >3.1
94.5 | 247 | 42.1 | Cc1cc(C(C)Nc2ccccc2C(=O)O)c2cc(-c3ccc(C(C)(C)O)cc3)n(C)c(=O)c2c1 (centres unmarked) [Example 51, 2-((1-(3-(4-(2-hydroxypropan-2-yl)phenyl)-2,7-dimethyl-1-oxo-1,2-dihydroisoquinolin-5-yl)ethyl)amino)benzoic acid] | >106
706 | 375 | 25.2 | CC#Cc1ccc(-c2cc3c(C(C)Nc4ccccc4C(=O)O)cc(C)cc3c(=O)n2C)cc1 (centres unmarked) [Example 52, 2-((1-(2,7-dimethyl-1-oxo-3-(4-(prop-1-yn-1-yl)phenyl)-1,2-dihydroisoquinolin-5-yl)ethyl)amino)benzoic acid] | >14
815 | 261 | 18.5 | Cc1cc(C(C)Nc2ccccc2C(=O)O)c2cc(-c3ccc4c(c3)C3CC3O4)n(C)c(=O)c2c1 (centres unmarked) [Example 53, 2-((1-(3-(1a,6b-dihydro-1H-cyclopropa[b]benzofuran-5-yl)-2,7-dimethyl-1-oxo-1,2-dihydroisoquinolin-5-yl)ethyl)amino)benzoic acid] | >12
296 | 725 | 35.9 | Cc1cc(C(C)Nc2ccccc2C(=O)O)c2cc(-c3ccc(C(C)(C)O)nc3)n(C)c(=O)c2c1 (centres unmarked) [Example 55, 2-((1-(3-(6-(2-hydroxypropan-2-yl)pyridin-3-yl)-2,7-dimethyl-1-oxo-1,2-dihydroisoquinolin-5-yl)ethyl)amino)benzoic acid] | >34
96.2 | 1050 | 16.3 | Cc1cc([C@@H](C)Nc2ccccc2C(=O)O)c2cc(-c3ccc(C(C)(C)O)nc3)n(C)c(=O)c2c1 [Example 56, (R)-2-((1-(3-(6-(2-hydroxypropan-2-yl)pyridin-3-yl)-2,7-dimethyl-1-oxo-1,2-dihydroisoquinolin-5-yl)ethyl)amino)benzoic acid] | >104
> 10000 | > 100000 | <0.9 | Cc1cc([C@H](C)Nc2ccccc2C(=O)O)c2cc(-c3ccc(C(C)(C)O)nc3)n(C)c(=O)c2c1 [Example 57, (S)-2-((1-(3-(6-(2-hydroxypropan-2-yl)pyridin-3-yl)-2,7-dimethyl-1-oxo-1,2-dihydroisoquinolin-5-yl)ethyl)amino)benzoic acid] | 
351 | 336 | 29.7 | COc1ncc(-c2cc3c(C(C)Nc4ccccc4C(=O)O)cc(C)cc3c(=O)n2C)cc1F (centres unmarked) [Example 58, 2-((1-(3-(5-fluoro-6-methoxypyridin-3-yl)-2,7-dimethyl-1-oxo-1,2-dihydroisoquinolin-5-yl)ethyl)amino)benzoic acid] | >29
93.1 | 281 | 15.3 | COc1ncc(-c2cc3c([C@@H](C)Nc4ccccc4C(=O)O)cc(C)cc3c(=O)n2C)cc1F [Example 59, (R)-2-((1-(3-(5-fluoro-6-methoxypyridin-3-yl)-2,7-dimethyl-1-oxo-1,2-dihydroisoquinolin-5-yl)ethyl)amino)benzoic acid] | >107
340 | 790 | 24.6 | Cc1cc(C(C)Nc2ccccc2C(=O)O)c2cc(-c3cncnc3)n(C)c(=O)c2c1 (centres unmarked) [Example 61, 2-((1-(2,7-dimethyl-1-oxo-3-(pyrimidin-5-yl)-1,2-dihydroisoquinolin-5-yl)ethyl)amino)benzoic acid] | >29
118 | 230 | 20.6 | Cc1cc(C(C)Nc2ccccc2C(=O)O)c2cc(-c3ccc(C4(O)CC4)cc3)n(C)c(=O)c2c1 (centres unmarked) [Example 62, 2-((1-(3-(4-(1-hydroxycyclopropyl)phenyl)-2,7-dimethyl-1-oxo-1,2-dihydroisoquinolin-5-yl)ethyl)amino)benzoic acid] | >85
205 | 92 | 66.8 | Cc1cc(C(C)Nc2ccccc2C(=O)O)c2cc(-c3ccc(F)cc3)n(CC#N)c(=O)c2c1 (centres unmarked) [Example 63, 2-((1-(2-(cyanomethyl)-3-(4-fluorophenyl)-7-methyl-1-oxo-1,2-dihydroisoquinolin-5-yl)ethyl)amino)benzoic acid] | >49
70 | 113 | 21.9 | Cc1cc([C@@H](C)Nc2ccccc2C(=O)O)c2cc(-c3ccc(F)cc3)n(CC#N)c(=O)c2c1 [Example 64, (R)-2-((1-(2-(cyanomethyl)-3-(4-fluorophenyl)-7-methyl-1-oxo-1,2-dihydroisoquinolin-5-yl)ethyl)amino)benzoic acid] | >143
